Experiments:
5-HT6 Receptor = target: T1, 5-HT6 Receptor (Homo sapiens, UniProt P50406); assay: Binding with 5-HT6 receptor (radioligand binding); details: compound concentration 10 uM; ligand 1.5 nM [3H]-LSD
T1 construct: expressed in transfected cells; host or cells: HeLa cells
Experimental: Binding with 5-HT6 Receptor.
The assay was conducted as follows [Monsma F. J., Jr, Shen Y., Ward R. P., Hamblin M. W., and Sibley D. R. Cloning and Expression of a novel serotonin receptor with high affinity for tricyclic psychotropic drugs. Mol. Pharmacol. 1993, 43: 320-327]: • Receptor source: human recombinant HeLa cells; • Ligand: 1.5 nM [3H]-lysergic acid diethylamide (LSD); • Vehicle: 1% DMSO; • Incubation time: 2 hours at 37 C; • Incubation buffer: 50 mM Tris-HCl, pH 7.4, 150 mM NaCl, 2 mM ascorbic acid, 0.001% BSA; • Compound concentration: 10 uM; • Non-specific ligand: 5 uM serotonin (5-HT); • Quantitation method: radioligand binding

[1] = target: butyrylcholine esterase (BuChE) (Homo sapiens, UniProt P06276); assay: Butyrylcholine esterase assay; assay type: biochemical; details: compound concentration 10 uM; human serum enzyme; 560 uM S-butyrylthiocholine
Experimental: Butyrylcholine Esterase Assay.
The assay was conducted as follows [Ellman G. L., Courtney K. D., Andres Jr. V., and Featherstone R. N. A new and rapid colorimetric determination of acetylcholinesterase activity.

[2] = tested on: mitochondrial permeability transition pores; details: MPP(+) and beta-amyloid fragment 25-35; cited from earlier work
C57BL/6 mice = assay: Object recognition test, recognition of a new localization of an object; assay type: in vivo; details: for object exploration / discrimination ratio compared with control: 0.02 mg/kg; for time exploring the object in a familiar localization / time exploring the object in a new localization: 0.1 mg/kg, tested 48 hours after training
From the text: Object recognition test as a method for research on the effects of some exemplary compounds on memory in mice.
The object recognition test is based on a spontaneous behavior of rats and mice to explore a novel object or a new localization of an object more often than a familiar one. This test was first developed for rats [Ennaceur A., Delacour J. A new one-trial test for neurobiological studies of memory in rats. 1: behavioral data. Behav. Brain Res. 1988; 31:47-59]. Thereafter, various researchers have shown that the test is also suitable for assessing memory performance in mice [e.g., Dodart J. C., Mathis C., Ungerer A. Scopolamine-induced deficits in a two-trial object recognition task in mice. NeuroReport 8 (1997), pp. 1173-1178]. The object recognition test is divided into two tests: a test of recognition of a new localization of an object that is used for research on spatial memory, and a test of recognition of a new object that is used for research on non-spatial memory.
Twenty (20) to twenty-two (22) month-old female mice (old mice) and four (4) to six (6) month-old male mice (young mice) of C57BL/6 strain were used. The animals were housed five per cage under a normal light cycle (12×12, light on at 8:00 AM) and with free access to water and food. The training box was made of white, opaque organic glass with dimensions of 48×38×30 cm. Two kinds of plastic items were used as objects for recognition: a white cylinder (d=4 cm, h=2.8 cm), and a black, three-edged prism (2.5×2.5×3.5 cm and h=3.4 cm). Care was taken to avoid olfactory stimuli by cleaning the objects and box carefully. Two (2) to three (3) min before the mice were placed into the box, the objects and the box were wiped with 85% ethanol. Animals were always placed in the middle of the training box.
Referring again to FIGS. 1A-1B and FIGS. 2A-2C, the mice were injected intraperitoneally with some of the various exemplary compounds shown in the figures, or with the vehicle (solvent) alone in the same volume, one hour before the recall trial.
On the first day of the experiment, the mice were handled in the research room for 20 to 30 min for acclimatization. Then, one by one, the mice were habituated to the training box by being placed into the box without any object for 20 min to explore the box, and were returned to their cages.
On the next day, the same mice were brought into a research room. After 20-30 min of acclimatization, each mouse was placed into an empty box for one minute. Then, the mouse was removed from the training box. Two identical objects (white cylinders) were placed approximately 5 inches distant from two adjacent corners of the box and immediately an animal was returned to the box. The time of exploring of each individual object was registered separately with the help of two electronic stop-watches (to within 0.1 sec). The behavior of each animal was observed through a mirror. Exploration was operationally defined as directing the nose to the object from a distance less than 2 cm, or touching the object with the nose. The duration of the training trial was 5, 10, 15 and 20 minutes.
[…] Testing was performed the same way as training, but one of the two familiar objects was changed to the new object (black prism).
When the recognition of a new localization of an object improved, the same experimental sequence was performed, except that only the localization of one of the familiar objects was changed in the testing session.
A significant variability of object exploration times between animals was measured. The ratio of object-exploration times was calculated as follows: each object-exploration time was divided by the sum of both of the object-exploration times during the same testing session, and expressed in percent: (tnew×100%)/(tfamiliar+tnew)
The data were analyzed using a one-way analysis of variance followed by a Student's t-test.

NMDA receptor = details: read-out: NMDA receptor inhibition constant (Ki); cited from earlier work

T1 sequence (P50406 whole entry): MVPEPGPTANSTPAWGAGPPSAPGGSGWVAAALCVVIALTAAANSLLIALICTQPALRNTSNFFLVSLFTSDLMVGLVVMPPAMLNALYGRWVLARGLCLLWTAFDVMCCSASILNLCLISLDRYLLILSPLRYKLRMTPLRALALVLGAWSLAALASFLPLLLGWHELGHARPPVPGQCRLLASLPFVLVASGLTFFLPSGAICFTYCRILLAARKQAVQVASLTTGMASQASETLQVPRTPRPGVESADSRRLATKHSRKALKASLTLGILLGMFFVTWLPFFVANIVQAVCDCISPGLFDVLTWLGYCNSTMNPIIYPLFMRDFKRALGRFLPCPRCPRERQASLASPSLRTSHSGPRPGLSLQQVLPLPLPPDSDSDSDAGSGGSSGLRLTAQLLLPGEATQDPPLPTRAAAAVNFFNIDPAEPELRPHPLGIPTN
butyrylcholine esterase (BuChE), sequence (P06276 29-602): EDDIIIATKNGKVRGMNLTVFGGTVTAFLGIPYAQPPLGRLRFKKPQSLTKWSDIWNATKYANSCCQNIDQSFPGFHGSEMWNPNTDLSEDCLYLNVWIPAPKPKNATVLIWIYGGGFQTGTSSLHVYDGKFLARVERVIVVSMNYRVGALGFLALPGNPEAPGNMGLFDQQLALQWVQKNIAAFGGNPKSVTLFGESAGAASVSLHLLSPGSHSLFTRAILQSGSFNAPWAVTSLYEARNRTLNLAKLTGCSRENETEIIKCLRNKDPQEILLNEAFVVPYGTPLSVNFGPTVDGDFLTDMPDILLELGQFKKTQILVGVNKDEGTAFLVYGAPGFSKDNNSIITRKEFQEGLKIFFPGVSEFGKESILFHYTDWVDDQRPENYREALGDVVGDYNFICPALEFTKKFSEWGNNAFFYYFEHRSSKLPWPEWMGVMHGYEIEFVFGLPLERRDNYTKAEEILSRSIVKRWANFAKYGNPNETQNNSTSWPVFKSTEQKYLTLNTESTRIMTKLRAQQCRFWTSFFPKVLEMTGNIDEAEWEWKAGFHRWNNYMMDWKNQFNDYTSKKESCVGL

Structure (SMILES) | inhibition at 10 µM (5-HT6 Receptor) [%] | inhibition at 10 µM [1] [%] | other results
CN1CCc2c(c3ccccc3n2CCc2ccc(C(F)(F)F)nc2)C1 [4-01] | 67 | 65 | –
Cc1ccc2c(c1)c1c(n2CCc2ccc(C(F)(F)F)nc2)CCN(C)C1 [4-02] | 97 | 95 | –
CN1CCc2c(c3cc(F)ccc3n2CCc2ccc(C(F)(F)F)nc2)C1 [4-03] | 72 | 34 | –
CN1CCc2c(c3cc(Cl)ccc3n2CCc2ccc(C(F)(F)F)nc2)C1 [4-04] | 100 | 97 | –
CN1CCc2c(c3cc(F)cc(F)c3n2CCc2ccc(C(F)(F)F)nc2)C1 [4-07] | 79 | 20 | –
CCN1CCc2c(c3cc(Cl)ccc3n2CCc2ccc(C(F)(F)F)nc2)C1 [4-08] | 77 | 100 | –
COc1ccc2c(c1)c1c(n2CCc2ccc(C(F)(F)F)nc2)CCN(C)C1 [I. 4-06] | 72 | 99 | –
CC(=O)NCCc1c[nH]c2ccc(O)cc12 [N-acetylserotonin] | – | – | prevention of neurotoxin-induced opening of mitochondrial pores [2]: prevented
CN1CCc2c(c3ccccc3n2CCc2cncc(F)c2)C1 [compound 1] | 90 | 75 | –
Cc1ccc2c(c1)c1c(n2CCc2cncc(F)c2)CCN(C)C1 [compound 2] | 102 | 87 | –
CN1CCc2c(c3cc(F)ccc3n2CCc2cncc(F)c2)C1 [compound 3] | 99 | 58 | –
CN1CCc2c(c3cc(Cl)ccc3n2CCc2cncc(F)c2)C1 [compound 4] | 103 | 91 | –
CN1CCc2c(c3cc(Br)ccc3n2CCc2cncc(F)c2)C1 [compound 5] | 103 | 96 | effectiveness as memory stimulating agents relative to memantine (C57BL/6 mice): approximately 25 times; object exploration / discrimination ratio compared with control (C57BL/6 mice): did not differ significantly from the control; time exploring the object in a familiar localization (C57BL/6 mice): approximately 43.0%; time exploring the object in a new localization (C57BL/6 mice): 57+/−4.6%
COc1ccc2c(c1)c1c(n2CCc2cncc(F)c2)CCN(C)C1 [compound 6] | 96 | 99 | –
CN1CCc2c(c3cc(F)cc(F)c3n2CCc2cncc(F)c2)C1 [compound 8] | 91 | 31 | effectiveness as memory stimulating agents relative to memantine (C57BL/6 mice): approximately 25 times; object exploration / discrimination ratio compared with control (C57BL/6 mice): not different from that of the control mice; time exploring the object in a familiar localization (C57BL/6 mice): 39.2+/−6.9%; time exploring the object in a new localization (C57BL/6 mice): 60.8+/−6.9%
CN1CCc2c(c3cc(C(F)(F)F)ccc3n2CCc2cncc(F)c2)C1 [compound 9] | 103 | 95 | –
CN1CCc2c(c3cc(OC(F)(F)F)ccc3n2CCc2cncc(F)c2)C1 [compound 10] | 95 | 100 | –
CCN1CCc2c(c3ccccc3n2CCc2cncc(F)c2)C1 [compound 11] | 77 | 66 | –
CCN1CCc2c(c3cc(C)ccc3n2CCc2cncc(F)c2)C1 [compound 12] | 101 | 89 | –
CCN1CCc2c(c3cc(F)ccc3n2CCc2cncc(F)c2)C1 [compound 14] | 88 | 53 | –
CCN1CCc2c(c3cc(Cl)ccc3n2CCc2cncc(F)c2)C1 [compound 15] | 99 | 94 | –
CC12CC3CC(C)(C1)CC(N)(C3)C2 [memantine] | – | – | Ki (NMDA receptor): 0.5 µM
Nc1c2c(nc3ccccc13)CCCC2 [tacrine] | – | – | prevention of neurotoxin-induced opening of mitochondrial pores [2]: prevented

Reference: patent publication US7935823B2 (priority 2007, dated 2011)
